Experimental data as given in patent US12612412B2, “Antiviral heterocyclic compounds” (Enanta Pharmaceuticals, Inc., priority 2021, dated 2026).

Each molecule was assayed on genotype A, "Long" strain RSV (assay: RSV-A assay (CPE protection in Hep-2 cells, ATPlite readout)). Conditions: human respiratory syncytial virus, genotype A “Long” strain RSV, MOI 0.1, CPE protection, read-out: Human RSV-A (“Long”).
Assay type: cell-based, Human respiratory syncytial virus (HRSV)
Text: Hep-2 cells, (originally derived from tumors grown in irradiated-cortisonised weanling rats that had been injected with epidermoid carcinoma tissue from the larynx of a person, but later found to be indistinguishable from HeLa cells by PCR DNA analysis), were used for the culturing of genotype A, “Long” strain RSV. Flasks were inoculated with RSV and viral stocks were collected once cytopathic effect (CPE) was greater than 90%. Viral stocks in 25% sucrose media were snap frozen using liquid nitrogen to increase viral stability. Viral stock titers were quantified by tissue culture infectious dose 50% (TCID50) using 8,000 cells per well and 3-fold viral dilutions across a 96-well plate, cultured for 4 days. Viral stock titers were also quantified by a plaque forming unit assay, as described elsewhere.
Following extensive parameter testing, the final assay is run as follows: Hep-2 cells are seeded into the inner 60 wells of a 96-well plate at 8,000 cells per well in a volume of 50 μL using Growth Media (DMEM without phenol red, 1% L-Glut, 1% Penn/Strep, 1% nonessential amino acids, 10% heat-inactivated FBS). 2-fold serial dilutions of control and test compounds are added to the wells in duplicate in a total volume of 25 μL. Viral stock is then added to the wells at a multiplicity of infection (MOI) of 0.1 in a volume of 25 μL, bringing the total volume of each well to 100 μL. The MOI is calculated using the PFU/mL, or TCID50 if unavailable. Each 96-well plate has a control column of 6 wells with cells and virus but no compound (negative control, max CPE), a column with cells but no compound or virus (positive control, minimum CPE), and a column with no cells or virus or compound (background plate/reagent control). The control wells with cells but no virus are given an additional 25 μL of growth media containing an equal quantity of sucrose as those wells receiving the viral stock in order to keep consistent in media and volume conditions. The outer wells of the plate are filled with 125 μL of moat media (DMEM, 1% Penn/Strep) to act as a thermal and evaporative moat around the test wells. Following a 5-day incubation period, the plates are read using ATPlite (50 uL added per well), which quantifies the amount of ATP (a measure of cell health) present in each well. Assay plates are read using the Envision luminometer. […] EC50 ranges are as follows: A<0.2 μM; B>0.2 μM.

| Compound | EC50 [µM] |
| --- | --- |
| C[C@]1(C(N)=O)COc2c1cc([C@@](O)(CNC(=O)c1cc3cn[nH]c3cc1C1CC1)C(F)(F)F)nc2-c1ccc(F)cc1 [Example 126] | > 0.2 |
| Cc1cc2[nH]ncc2cc1C(=O)NC[C@](O)(c1cc2c(c(-c3ccc(F)cc3)n1)OC[C@]2(C)C(N)=O)C(F)(F)F [Example 127] | > 0.2 |
| C[C@]1(C(N)=O)COc2c1cc([C@@](O)(CNC(=O)c1ccc3nc(C(N)=O)sc3c1)C(F)(F)F)nc2-c1ccc(F)cc1 [Example 130] | < 0.2 |
| COc1cc(C(=O)NC[C@](O)(c2cc3c(c(-c4ccc(F)cc4)n2)OC[C@]3(C)C(N)=O)C(F)(F)F)ccc1OC[C@@H](O)C(F)(F)F [Example 131] | < 0.2 |
| COc1cc(C(=O)NC[C@](O)(c2cc3c(c(-c4ccc(F)cc4)n2)OC[C@]3(C)C(N)=O)C(F)(F)F)ccc1OC[C@H](C)O [Example 133] | < 0.2 |
| C[C@]1(C(N)=O)COc2c1cc([C@@](O)(CNC(=O)c1ccc3nc(NS(C)(=O)=O)sc3c1)C(F)(F)F)nc2-c1ccc(F)cc1 [Example 140] | > 0.2 |
| COc1cc(C(=O)NC[C@](O)(c2cc3c(c(-c4ccc(F)cc4)n2)OC[C@]3(C)C(N)=O)C(F)(F)F)cc2c1cnn2C1CC1 [Example 144] | > 0.2 |
| C[C@]1(C(N)=O)COc2c1cc([C@@](O)(CNC(=O)c1cc(Cl)c3cnn(C4CC4)c3c1)C(F)(F)F)nc2-c1ccc(F)cc1 [Example 145] | > 0.2 |
| C[C@]1(C(N)=O)COc2c1cc([C@@](O)(CNC(=O)c1cc(F)c3cnn(C4CC4)c3c1)C(F)(F)F)nc2-c1ccc(F)cc1 [Example 146] | > 0.2 |
| COc1cc(C(=O)NC[C@](O)(c2cc3c(c(-c4ccc(F)cc4)n2)OC[C@]3(C)C(N)=O)C(F)(F)F)ccc1OC[C@@H](C)N [Example 150] | > 0.2 |
| CN[C@H](C)COc1ccc(C(=O)NC[C@](O)(c2cc3c(c(-c4ccc(F)cc4)n2)OC[C@]3(C)C(N)=O)C(F)(F)F)cc1OC [Example 151] | > 0.2 |
| C[C@]1(C(N)=O)COc2c1cc([C@@](O)(CNC(=O)c1ccc3nc(NC(=N)N)sc3c1)C(F)(F)F)nc2-c1ccc(F)cc1 [Example 159] | < 0.2 |
| C[C@]1(C(N)=O)COc2c1cc([C@@](O)(CNC(=O)c1ccc3nc(NCCO)sc3c1)C(F)(F)F)nc2-c1ccc(F)cc1 [Example 162] | > 0.2 |
| C[C@H](O)CNc1nc2ccc(C(=O)NC[C@](O)(c3cc4c(c(-c5ccc(F)cc5)n3)OC[C@]4(C)C(N)=O)C(F)(F)F)cc2s1 [Example 163] | < 0.2 |
| C[C@@H](O)CNc1nc2ccc(C(=O)NC[C@](O)(c3cc4c(c(-c5ccc(F)cc5)n3)OC[C@]4(C)C(N)=O)C(F)(F)F)cc2s1 [Example 164] | < 0.2 |
| Cc1cc2cc(C(=O)NC[C@](O)(c3cc4c(c(-c5ccc(F)cc5)n3)OC[C@]4(C)C(N)=O)C(F)(F)F)ccc2[nH]1 [Example 171] | < 0.2 |
| CCn1ncc2cc(C(=O)NC[C@](O)(c3cc4c(c(-c5ccc(F)cc5)n3)OC[C@]4(C)C(N)=O)C(F)(F)F)cc(Cl)c21 [Example 172] | > 0.2 |
| CCn1cc2cc(C(=O)NC[C@](O)(c3cc4c(c(-c5ccc(F)cc5)n3)OC[C@]4(C)C(N)=O)C(F)(F)F)cc(Cl)c2n1 [Example 173] | < 0.2 |
| Cc1cc2cc(C(=O)NC[C@](O)(c3cc4c(c(-c5ccc(F)cc5)n3)OC[C@]4(C)C(N)=O)C(F)(F)F)ccc2n1C [Example 175] | > 0.2 |
| Cn1ccc2cc(C(=O)NC[C@](O)(c3cc4c(c(-c5ccc(F)cc5)n3)OC[C@]4(C)C(N)=O)C(F)(F)F)ccc21 [Example 176] | > 0.2 |
| COc1cc(C(=O)NC[C@](O)(c2cc3c(c(-c4ccc(F)cc4)n2)OC[C@]3(C)C(N)=O)C(F)(F)F)nc2cc(C)nn12 [Example 180] | > 0.2 |
| Cc1cc2nc(C(=O)NC[C@](O)(c3cc4c(c(-c5ccc(F)cc5)n3)OC[C@]4(C)C(N)=O)C(F)(F)F)cc(C)n2n1 [Example 181] | > 0.2 |
| C[C@]1(C(N)=O)COc2c1cc([C@@](O)(CNC(=O)c1ccc3cc(C4CC4)cn3c1)C(F)(F)F)nc2-c1ccc(F)cc1 [Example 185] | > 0.2 |
| C[C@]1(C(N)=O)COc2c1cc([C@@](O)(CNC(=O)c1ccc3nc(C4CC4)cn3n1)C(F)(F)F)nc2-c1ccc(F)cc1 [Example 186] | > 0.2 |
| C[C@]1(C(N)=O)COc2c1cc([C@@](O)(CNC(=O)c1ccc3nc(NC(=O)[C@@H](N)CO)sc3c1)C(F)(F)F)nc2-c1ccc(F)cc1 [Example 187] | < 0.2 |

| Compound | EC50 [µM] |
| --- | --- |
| Cc1cc2ccc(C(=O)NC[C@](O)(c3cc4c(c(-c5ccc(F)cc5)n3)OC[C@]4(C)C(N)=O)C(F)(F)F)cn2c1 [Example 189] | > 0.2 |
| C[C@]1(C(N)=O)COc2c1cc([C@@](O)(CNC(=O)c1ccc3sc(N)nc3c1)C(F)(F)F)nc2-c1ccc(F)cc1 [Example 190] | > 0.2 |
| C[C@]1(C(N)=O)COc2c1cc([C@@](O)(CNC(=O)c1ccc3oc(N)nc3c1)C(F)(F)F)nc2-c1ccc(F)cc1 [Example 191] | < 0.2 |
| COc1cc(C(=O)NC[C@](O)(c2cc3c(c(-c4ccc(F)cc4)n2)OC[C@]3(C)C(N)=O)C(F)(F)F)nc2cc(C3CC3)nn12 [Example 192] | > 0.2 |
| C[C@]1(C(N)=O)COc2c1cc([C@@](O)(CNC(=O)c1ccc3[nH]c(C4CC4)nc3c1)C(F)(F)F)nc2-c1ccc(F)cc1 [Example 193] | > 0.2 |
| Cc1cc(C(=O)NC[C@](O)(c2cc3c(c(-c4ccc(F)cc4)n2)OC[C@]3(C)C(N)=O)C(F)(F)F)cc2nc[nH]c12 [Example 194] | < 0.2 |
| C[C@]1(C(N)=O)COc2c1cc([C@@](O)(CNC(=O)c1cc(Br)c3[nH]cnc3c1)C(F)(F)F)nc2-c1ccc(F)cc1 [Example 195] | < 0.2 |
| C[C@]1(C(N)=O)COc2c1cc([C@@](O)(CNC(=O)c1ccc3cc[nH]c3c1)C(F)(F)F)nc2-c1ccc(F)cc1 [Example 196] | > 0.2 |
| C[C@]1(C(N)=O)COc2c1cc([C@@](O)(CNC(=O)c1cc(F)c3[nH]ccc3c1)C(F)(F)F)nc2-c1ccc(F)cc1 [Example 197] | < 0.2 |
| C[C@]1(C(N)=O)COc2c1cc([C@@](O)(CNC(=O)c1cnn3cccc3c1Cl)C(F)(F)F)nc2-c1ccc(F)cc1 [Example 198] | > 0.2 |
| C[C@]1(C(N)=O)COc2c1cc([C@@](O)(CNC(=O)c1cnn3cccc3c1)C(F)(F)F)nc2-c1ccc(F)cc1 [Example 201] | > 0.2 |
| C[C@]1(C(N)=O)COc2c1cc([C@@](O)(CNC(=O)c1cc(Br)c3oc(N)nc3c1)C(F)(F)F)nc2-c1ccc(F)cc1 [Example 202] | < 0.2 |
| C[C@]1(C(N)=O)COc2c1cc([C@@](O)(CNC(=O)c1cc(Br)c3nc(N)oc3c1)C(F)(F)F)nc2-c1ccc(F)cc1 [Example 203] | < 0.2 |
| C[C@]1(C(N)=O)COc2c1cc([C@@](O)(CNC(=O)c1cc(Br)c3[nH]c(C4CC4)nc3c1)C(F)(F)F)nc2-c1ccc(F)cc1 [Example 204] | < 0.2 |
| C[C@]1(C(N)=O)COc2c1cc([C@@](O)(CNC(=O)c1ccc3[nH]c(C4CC4)cc3c1)C(F)(F)F)nc2-c1ccc(F)cc1 [Example 205] | > 0.2 |
| C[C@]1(C(N)=O)COc2c1cc([C@@](O)(CNC(=O)c1cc(OC3CC3)c3[nH]ccc3c1)C(F)(F)F)nc2-c1ccc(F)cc1 [Example 206] | < 0.2 |
| COc1ccccc1-c1cc(C(=O)NC[C@](O)(c2cc3c(c(-c4ccc(F)cc4)n2)OC[C@]3(C)C(N)=O)C(F)(F)F)n[nH]1 [Example 207] | > 0.2 |
| COc1cccc(-c2cc(C(=O)NC[C@](O)(c3cc4c(c(-c5ccc(F)cc5)n3)OC[C@]4(C)C(N)=O)C(F)(F)F)n[nH]2)c1 [Example 208] | > 0.2 |
| COc1ccc(-c2cc(C(=O)NC[C@](O)(c3cc4c(c(-c5ccc(F)cc5)n3)OC[C@]4(C)C(N)=O)C(F)(F)F)n[nH]2)cc1 [Example 209] | > 0.2 |
| C[C@]1(C(N)=O)COc2c1cc([C@@](O)(CNC(=O)c1cc3c(OC(F)F)cccc3[nH]1)C(F)(F)F)nc2-c1ccc(F)cc1 [Example 211] | < 0.2 |
| C[C@]1(C(N)=O)COc2c1cc([C@@](O)(CNC(=O)c1nc(-c3ccccc3)c[nH]1)C(F)(F)F)nc2-c1ccc(F)cc1 [Example 212] | > 0.2 |
| COc1cccc(-n2ccc(C(=O)NC[C@](O)(c3cc4c(c(-c5ccc(F)cc5)n3)OC[C@]4(C)C(N)=O)C(F)(F)F)n2)c1 [Example 213] | > 0.2 |
| COc1ccccc1-c1nc(C(=O)NC[C@](O)(c2cc3c(c(-c4ccc(F)cc4)n2)OC[C@]3(C)C(N)=O)C(F)(F)F)c[nH]1 [Example 214] | > 0.2 |
| CC(C)(O)CNC(=O)Nc1cc(C(=O)NC[C@](O)(c2cc3c(c(-c4ccc(F)cc4)n2)OC[C@]3(C)C(N)=O)C(F)(F)F)cc2cc(C3CC3)cnc12 [Example 215] | < 0.2 |
